EC50 data for one compound are collected here from patent publication US11306111B2, “Organophosphate derivatives” (January Therapeutics, Inc., priority 2017, dated 2022).

Structures can show the parent of a compound that is named as a salt.

The assay concerns BxPC-3 cells. As to the kind of experiment: Cellular proliferation assay in BxPC-3 cells (Cell-Titer Glo, 120 h). In kind it is cell-based. The conditions noted are these: Homo sapiens, 120 h incubation, Cell-Titer Glo luminescence. As to the method: Compounds are tested for their ability to impair cancer cell proliferation and/or induce cell death. For cellular proliferation studies, cultured cells are treated with the test compound for 24-120 hours. After compound treatment, cell proliferation is assessed by using methods including, but not limited to, Cell-Titer-Glo® (Promega), Alamar Blue, LIVE/DEAD® (ThermoFisher), BrdU incorporation, and live-cell imaging.
The cancer lines used include, but are not limited to, PANC-1, MiaPaCa-2, BxPC-3 (pancreatic cancer), RT112 (bladder cancer), MCF-7 (breast cancer), and A549 (non-small cell lung cancer). Gemcitabine Hydrochloride serves as a control for activity.
Protocol for the Cellular Proliferation Assay in BxPC-3 Cells
BxPC-3 (pancreatic adenocarcinoma) cell line was purchased from the American Type Culture Collection (Catalog #CRL-1687) and grown in RPMI-1640 medium (e.g. Corning #10-040-CV) with 10% Heat Inactivated Fetal Calf Serum at 37° C. and 5% CO2 (as recommended by the ATCC).
Cultures were grown in […] plates to 80% confluence, and cells were trypsinized to a single-cell suspension. Cells were then resuspended in growth medium to a density of […]. They were then plated into 96-well assay plates (Corning #3917) in a volume of 100 ul/well (2,500 cells/well). Cells were allowed to adhere to plates for 24 h at 37° C. and 5% CO2). Compounds were then added to the wells using an […] serial dilution scheme (over 9 dilutions, generally ranging from 30 μM-30 pM), and the cells were incubated for an additional 120 hours. After 120 h, 90 ul of Cell-Titer Glo reagent (Promega #G7572) was added, and the plates were read using a luminescence counter (e.g., BioTek Synergy HTX at 100 ms read time).

Broadly, the EC50 is the concentration that produces a half-maximal response. For the compound `Nc1ccn([C@@H]2O[C@H](CO)[C@@H](O)C2(F)F)c(=O)n1` [Gemcitabine Hydrochloride, 2′,2′-difluoro-2′-deoxycytidine, reference compound], the EC50 lay in the range of 0.001 to 0.1 µM.
